Where two headings read alike, the source gives them in different places.
What was measured:
[1] = target: T1, human cystathionine-γ-lyase (hCSE) (Homo sapiens, UniProt P32929); assay: IC50 assay: inhibition of H2S production by purified hCSE, WSP5 fluorescent probe; type: biochemical; conditions: for IC50: purified hCSE 0.02 μM, 100 μM L-cysteine, WSP5 probe, mean ± SD
T1 construct: His6-TEV (N, cleaved yes); host or cells: E. coli
Method: (§1) Fluorescence spectrophotometry-based inhibitory activity toward purified bCSE and hCSE was measured in a 96-well nonbinding black plate (Greiner, Kremsmunster, Austria) at 100 μL of the reaction mixture per well. bCSE and hCSE (0.02 μM) were preincubated in a thermoshaker (Biosan, Riga, Latvia) (30 °C, 300 rpm) for 40 min in 50 mM sodium phosphate buffer (pH 8.0), supplemented with 10 μM pyridoxal 5′-phosphate (Sigma-Aldrich, St. Louis, MO, USA), 0.1% of Tween 20 (Sigma-Aldrich, St. Louis, MO, USA), and 1.2 μM Washington State Probe-5 (Cayman Chemical, Ann Arbor, MI, USA) (excitation: 500 nm, emission: 530 nm) at different concentrations of a tested inhibitor. The reaction was initiated by the addition of 100 μM L-cysteine (TCI, Chennai, Tamil Nadu, India) in 50 mM sodium phosphate buffer pH 8.0 to the reaction mixture, and the enzymatic activity was monitored for 12 h using a CLARIOstar Plus instrument (BMG LABTECH GmbH, Ortenberg, Germany). The 100 µM L-cysteine concentration used in the experiments corresponds to the maximal reported intracellular concentration in bacteria. The data were normalized to the positive and negative controls, and IC50 values were obtained by fitting to a four-parameter sigmoidal curve (inhibitor vs. response, variable slope model) in GraphPad Prism 8 software (GraphPad by Dotmatics, Boston, MA, USA). Each experiment was conducted with 2–3 technical replicates. IC50 values were means of at least two independent experiments.
(§2) For the production of S. aureus cystathionine-γ-lyase (bCSE) and of human cystathionine-γ-lyase (hCSE), plasmids pSUMO:saCSE (Addgene # 54336) and pNIC28-Bsa4 (Addgene # 42365) were employed. Cultivation of a competent E. coli cell strain (Thermo Fisher Scientific, Waltham, MA, USA), transformed with a target plasmid, was carried out on a selective solid medium with kanamycin. Bacterial cells harboring the plasmid vector were cultured at 37 °C and 180 rpm until OD600 = 0.65. Then, isopropyl β-D1-thiogalactopyranoside (IPTG) was added to a final concentration of 1 mM. To obtain bCSE, the cells were cultured for 3.5 h at 37 °C; to obtain hCSE, the cells were cultured for 18–20 h at 25 °C. After centrifugation, cells were resuspended in a buffer composed of 50 mM Tris–HCl, at a pH of 8.0, and 300 mM sodium chloride. After that, the cells were lysed by ultrasonication, with a pulse duration of 15 s and an interval between pulses of 15 s. The amplitude of the ultrasonic vibrations was 50% of the maximum. After lysis, samples were centrifuged for 15 min (20,000× g at 4 ℃). The pH of the supernatant obtained after the centrifugation was adjusted to 7.5 by the addition of a 1 M solution of Tris–OH. Then, the test sample was subjected to filtration through a polyethersulfone membrane with a pore diameter of 0.22 μm.

[2] = target: S. aureus cystathionine-γ-lyase (bCSE) (Staphylococcus aureus, UniProt A0A0H3K724); assay: IC50 assay: inhibition of H2S production by purified bCSE, WSP5 fluorescent probe; type: biochemical
Method: as §1, §2

[3] = HEK293 cytotoxicity assay (Alamar Blue); type: cell-based; conditions: human, HEK293, 72 h
Method: The HEK 293 cell line was obtained from the European Collection of Authenticated Cell Cultures (ECACC, cat. # 85120602, Salisbury, UK). The cells were grown in a monolayer culture in Dulbecco’s Modified Eagle’s Medium (DMEM) (PanEco, Moscow, Russia), supplemented with 2 mM L-glutamine, 1% of a penicillin/streptomycin solution (Capricorn Scientific, Ebsdorfergrund, Germany), and 10% of heat inactivated fetal bovine serum (HyClone, Cytiva, Marlborough, MA, USA) in a humidified atmosphere containing 5% of CO2 at 37 °C (Binder, Germany). For the assay, HEK 293 cells were seeded in a 96-well plate (Corning, NY, USA) in 100 μL of the complete culture medium, at a final density of 2 × 10^3 cells/well, and were cultured for 24 h for proper attachment. Subsequently, the medium was removed, and the cells were exposed to a tested inhibitor at different concentrations for 72 h in 100 μL of the fresh complete culture medium. The sensitivity of the cells to the compounds was detected using the vital dye Alamar Blue (Invitrogen, San Diego, CA, USA). The Alamar Blue assay was performed according to the procedure described by O’Brien et al.. After incubation with the tested bCSE inhibitors, 10 μL of the Alamar Blue reagent was added into each well, the cell culture plates were returned to the humidified incubator, and the fluorescence was read after 3 h. The plates were exposed to an excitation light of 545 nm wavelength, and emission at 600 nm was measured on the CLARIOstar Plus (BMG LABTECH GmbH, Ortenberg, Germany). To determine half-maximal cytotoxic concentration (CC50), a four-parameter sigmoidal curve model (GraphPad Prism 8 software) was fitted to the measurement data.

[4] = test system: P. aeruginosa GIMC5016:PA1840/36/2015; assay: MIC of antibiotics alone and with potentiators, clinical isolate; conditions: P. aeruginosa GIMC5016:PA1840/36/2015, no potentiator
Method: Overnight (ON) culture of a specific strain was grown in the liquid Luria–Bertani nutrient medium (LB broth, BD Difco) for 18 h at 37 °C, with agitation at 180 rpm using an Innova 44R orbital shaker (Eppendorf, Hamburg, Germany). After a certain period, 50 µL of the ON culture was transferred into 5 mL of the LB medium and grown for 3 h at 37 °C with agitation. Growth in the liquid medium was assessed by means of turbidity of the suspension, measured using a Densi-La-Meter II densitometer (Erba Lachema s.r.o., Brno, Czech Republic). Then, the bacterial suspension was diluted to the concentration 10^6 cells/mL with sterile LB and used as a seed culture [38, 39].
For the assessment of MICs, 96-well microtiter plates were utilized at 200 µL of a medium per well. Each well was filled with 100 µL of the seed culture. After that, 10 µL of a solution of each tested synthetic compound (potentiators) was added into each experimental well. Finally, 90 µL of twofold serial dilutions of an antibiotic in a sterile LB was added into individual wells.
As a positive control, we set up wells with 100 µL of the bacterial culture and 100 µL of the sterile LB medium. […] Negative-control wells contained 200 µL of the sterile medium. The plates were incubated in a thermostat for 18–20 h at 37 °C. The bacterial growth was assessed as optical density at 600 nm on a CLARIOstar microplate reader (BMG LABTECH GmbH, Ortenberg, Germany)).

[5] = test system: P. aeruginosa GIMC5016:PA1840/36/2015; assay: Susceptibility of isolate to main antimicrobial agents; type: cell-based
in vitro = assay: in vitro
Method: A test compound (final concentration 10 μM) was incubated at 37 °C in SGF, SIF, or human plasma for 2, 2, or 4 h, respectively. 100 μL aliquots were taken from each sample and 300 μL of acetonitrile containing an internal standard was added. […] All compounds were tested in triplicate. The percentage of a remaining compound after incubation was determined based on the chromatographic peak area of the sample after incubation and that of time zero (freshly prepared and injected) sample.

[6] = read-out: IC50 biochemical assay hCSE
[7] = IC50 biochemical assay bCSE, purified bCSE 0.02 μM, 100 μM L-cysteine, WSP5 probe, mean ± SD
[8] = IC50 (uM), bCSE enzymatic IC50, rounded, repeated in Table S13
[9] = IC50 (uM), bCSE enzymatic IC50, rounded, repeated in Table S14
[10] = IC50 (uM), bCSE enzymatic IC50, rounded, repeated in Table S15

T1 sequence (P32929 whole entry): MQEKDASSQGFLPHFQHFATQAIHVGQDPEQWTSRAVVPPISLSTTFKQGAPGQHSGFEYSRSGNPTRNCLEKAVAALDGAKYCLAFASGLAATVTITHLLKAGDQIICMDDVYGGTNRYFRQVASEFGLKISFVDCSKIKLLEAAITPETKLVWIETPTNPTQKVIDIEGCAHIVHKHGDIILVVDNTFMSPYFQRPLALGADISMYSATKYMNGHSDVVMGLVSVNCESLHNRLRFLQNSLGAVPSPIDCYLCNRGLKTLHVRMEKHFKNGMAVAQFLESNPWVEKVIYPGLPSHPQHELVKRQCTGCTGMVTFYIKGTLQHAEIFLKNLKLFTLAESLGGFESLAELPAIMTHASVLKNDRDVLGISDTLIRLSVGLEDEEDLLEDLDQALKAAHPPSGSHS
S. aureus cystathionine-γ-lyase (bCSE), sequence (A0A0H3K724 entry or part of it): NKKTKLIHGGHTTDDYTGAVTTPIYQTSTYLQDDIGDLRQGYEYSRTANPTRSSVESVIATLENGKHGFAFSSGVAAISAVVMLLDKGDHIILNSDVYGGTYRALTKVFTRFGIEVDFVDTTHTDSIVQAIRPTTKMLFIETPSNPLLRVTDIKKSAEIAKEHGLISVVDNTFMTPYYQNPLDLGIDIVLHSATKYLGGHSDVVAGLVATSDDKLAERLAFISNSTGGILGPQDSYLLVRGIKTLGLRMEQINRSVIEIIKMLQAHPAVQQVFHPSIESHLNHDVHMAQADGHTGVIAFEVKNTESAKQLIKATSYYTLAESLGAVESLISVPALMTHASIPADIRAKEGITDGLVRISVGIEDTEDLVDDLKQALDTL

Compound: C#CC[C@H](N)C(=O)O (racemic) [PAG, DL-propargylglycine, reference compound]
- Hill slope of dose-response curve toward hCSE [1]: ~1.0
- IC50 [1, 6]: 0.17 ± 0.02 µM
- Hill slope of dose-response curve toward bCSE [2]: approximately two
- IC50 [2, 7]: 24.3 ± 0.7 µM

Compound: O=C(O)c1cn(Cc2cccc3ccccc23)c2ccccc12 [Compound 1a]
- activity toward hCSE (in words) [1]: did not show noticeable activity
- IC50 ([1]; IC50 biochemical assay hCSE): > 500 µM
- CC50 at 72 h [3]: 432 ± 37.5 µM
- activity toward bCSE (in words) [2]: did not show noticeable activity
- IC50 [2, 7]: > 500 µM

Compound: O=C(O)c1cn(Cc2ccc3ccccc3c2)c2ccccc12 [Compound 1b]
- activity toward hCSE (in words) [1]: did not show noticeable activity
- IC50 ([1]; IC50 biochemical assay hCSE): > 500 µM
- CC50 at 72 h [3]: 423 ± 71.8 µM
- activity toward bCSE (in words) [2]: did not show noticeable activity
- IC50 [2, 8]: > 500 µM
- IC50 [2, 9]: > 500 µM
- IC50 [2, 7]: > 500 µM

Compound: O=C(O)c1cc2ccccc2n1Cc1ccc2ccccc2c1 [Compound 2b]
- IC50 [1, 6]: 285 ± 14.6 µM
- CC50 at 72 h ([3]; HEK293 cells): 368 ± 32.8 µM
- IC50 [2, 8]: 71 µM
- IC50 [2, 9]: 71 µM
- IC50 [2, 10]: 71 µM
- IC50 [2, 7]: 71.1 ± 4.2 µM

Compound: O=C(O)c1ccc2ccn(Cc3cccc4ccccc34)c2c1 [Compound 3a]
- IC50 [1, 6]: 472 ± 37.3 µM
- CC50 at 72 h ([3]; HEK293 cells): 452 ± 21.5 µM
- IC50 [2, 8]: 79 µM
- IC50 [2, 9]: 79 µM
- IC50 [2, 10]: 79 µM
- IC50 [2, 7]: 79.3 ± 5.9 µM

Compound: O=C(O)c1ccc2ccn(Cc3ccc4ccccc4c3)c2c1 [Compound 3b]
- IC50 [1, 6]: > 500 µM
- CC50 at 72 h ([3]; HEK293 cells): 528 ± 47.1 µM
- IC50 [2, 9]: 141 µM
- IC50 [2, 10]: 141 µM
- IC50 [2, 7]: 148 ± 46.4 µM

Compound: O=C(O)c1ccc2c(ccn2Cc2ccc3ccccc3c2)c1 [Compound 4b]
- IC50 [1, 6]: > 500 µM
- CC50 at 72 h ([3]; HEK293 cells): 217 ± 93.2 µM
- IC50 [2, 8]: 110 µM
- IC50 [2, 9]: 110 µM
- IC50 [2, 10]: 110 µM
- IC50 [2, 7]: 110 ± 11.7 µM

Compound: O=C(O)c1cccn1Cc1cccc2ccccc12 [Compound 5a]
- IC50 [1, 6]: > 500 µM
- CC50 at 72 h ([3]; HEK293 cells): 460 ± 51.1 µM
- IC50 [2, 8]: 289 µM
- IC50 [2, 9]: 289 µM
- IC50 [2, 10]: 289 µM
- IC50 [2, 7]: 289 ± 30.4 µM

Compound: COc1cccc2c1C(=O)c1c(O)c3c(c(O)c1C2=O)C[C@@](O)(C(=O)CO)C[C@@H]3O[C@H]1C[C@H](N)[C@H](O)[C@H](C)O1 [Doxorubicin, reference compound]
- CC50 at 72 h ([3]; HEK293 cells): 1.3 ± 0.71 µM

Compound: CNC(C)C1CCC(N)C(OC2C(N)CC(N)C(OC3OCC(C)(O)C(NC)C3O)C2O)O1 (centres unmarked) [Gentamicin, gentamicin]
- MIC of antibiotic alone [4]: > 512 µg/mL
- susceptibility of isolate (Sensitive to / Resistant to) [5]: Resistant to

Compound: COc1ccc2[nH]c([S+]([O-])Cc3ncc(C)c(OC)c3C)nc2c1 (centres unmarked) [Omeprazole, reference compound]
- Stability in SIF, % Remaining at 2 h (in vitro; simulated gi fluid, 2 h, 10 μM): 90.5%
- remaining at 2 h, 10 μM (in vitro; simulated gi fluid, Stability in SGF): < 0.1%
- remaining at 2 h, 10 μM (in vitro; simulated gi fluid, Stability in SIF): 90.5 ± 10%

Compound: CC(C)[N+](C)(CCOC(=O)C1c2ccccc2Oc2ccccc21)C(C)C [Propantheline, propantheline bromide, reference compound]
- Stability in human plasma, % Remaining at 4 h (in vitro; 4 h, 10 μM): 0.2%
- remaining at 4 h, 10 μM (in vitro; human, plasma, Stability in human plasma, % Remaining at 4 h): 0.21 ± 0.04%

Compound: NCC[C@H](O)C(=O)N[C@@H]1C[C@H](N)[C@@H](O[C@H]2O[C@H](CN)[C@@H](O)[C@H](O)[C@H]2O)[C@H](O)[C@H]1O[C@H]1O[C@H](CO)[C@@H](O)[C@H](N)[C@H]1O [amikacin]
- susceptibility of isolate (Sensitive to / Resistant to) [5]: Resistant to

Compound: Cc1nnc(SCC2=C(C(=O)O)N3C(=O)[C@@H](NC(=O)Cn4cnnn4)[C@H]3SC2)s1 [cefazolin]
- susceptibility of isolate (Sensitive to / Resistant to) [5]: Resistant to

Compound: CO/N=C(\C(=O)N[C@@H]1C(=O)N2C(C(=O)O)=C(COC(C)=O)CS[C@H]12)c1csc(N)n1 [cefotaxime]
- susceptibility of isolate (Sensitive to / Resistant to) [5]: Resistant to

Compound: CC(C)(O/N=C(\C(=O)N[C@@H]1C(=O)N2C(C(=O)[O-])=C(C[n+]3ccccc3)CS[C@H]12)c1csc(N)n1)C(=O)O [ceftazidime]
- susceptibility of isolate (Sensitive to / Resistant to) [5]: Resistant to

Compound: CO/N=C(\C(=O)N[C@@H]1C(=O)N2C(C(=O)O)=C(CSc3nc(=O)c(=O)[nH]n3C)CS[C@H]12)c1csc(N)n1 [ceftriaxone]
- susceptibility of isolate (Sensitive to / Resistant to) [5]: Resistant to

Compound: O=C(O)c1cn(C2CC2)c2cc(N3CCNCC3)c(F)cc2c1=O [ciprofloxacin]
- susceptibility of isolate (Sensitive to / Resistant to) [5]: Resistant to

Compound: C[C@H]1COc2c(N3CCN(C)CC3)c(F)cc3c(=O)c(C(=O)O)cn1c23 [levofloxacin]
- susceptibility of isolate (Sensitive to / Resistant to) [5]: Resistant to

Compound: CCN1CCN(C(=O)N[C@@H](C(=O)N[C@@H]2C(=O)N3[C@@H]2SC(C)(C)[C@@H]3C(=O)O)c2ccccc2)C(=O)C1=O [piperacillin]
- susceptibility of isolate (Sensitive to / Resistant to) [5]: Resistant to

Compound: NC[C@H]1O[C@H](O[C@H]2[C@H](O)[C@@H](O[C@H]3O[C@H](CO)[C@@H](O)[C@H](N)[C@H]3O)[C@H](N)C[C@@H]2N)[C@H](N)C[C@@H]1O [tobramycin]
- susceptibility of isolate (Sensitive to / Resistant to) [5]: Resistant to

Source: PMC10671052, “Naphthyl-Substituted Indole and Pyrrole Carboxylic Acids as Effective Antibiotic Potentiators—Inhibitors of Bacterial Cystathionine γ-Lyase” (International Journal of Molecular Sciences, 2023)
